According to ChEMBL document CHEMBL3507680, “University of Dundee, Gates Library screen for HepG2 cell viability”:

Assay: Human HepG2 cell viability assay in 384 well format
Format: toxicity, cell-based
Design: dose 125 nL, time 70.5 hour; concentration not given beside the values
Details: HepG2 cells, read-out: Inhibition

Work on `CCc1nnsc1C(=O)N1CCCN(Cc2nccn2C)CC1` yielded a cytotoxicity at 70.5 h of -21.7%.

`COc1ccc(CC(=O)N2Cc3nccn3CC(CN(C)C)C2)cc1` (stereo not given) gave a cytotoxicity at 70.5 h of 20.5%.

`CCc1nc(C(=O)N2CCCC2)nn1-c1c(Cl)cccc1Cl` showed a cytotoxicity at 70.5 h of -2.51%.

Molecule `Cc1nn(C)cc1-c1cc(C(F)F)n2nc(CCC(=O)O)nc2n1` has a cytotoxicity at 70.5 h of -0.99%.

Work on `CC(C)c1noc(C(C)N2CCN(Cc3cccc(C#N)c3)CC2)n1` (stereo not given) yielded a cytotoxicity at 70.5 h of -11%.

Work on `CC(C)(O)CN1CCN(C(=O)c2cc3ccccc3c(=O)[nH]2)CC1` yielded a cytotoxicity at 70.5 h of -3.18%.

Work on `CC(Nc1ccn(Cc2ccccn2)n1)C(=O)NC(C)(C)C` (stereo not given) yielded a cytotoxicity at 70.5 h of -7.21%.

`CO[C@H]1CCN(C(=O)c2ccc3oc(C)cc3c2)C[C@@]12CCCO2` gave a cytotoxicity at 70.5 h of -5.42%.

Molecule `COCCN(CCN(C)C)C(=O)NC1CCc2ccccc2C1` (stereo not given) has a cytotoxicity at 70.5 h of -5.75%.

`Cc1nn(CCC(=O)NC2CCCOC2)c(C)c1C` (stereo not given) gave a cytotoxicity at 70.5 h of -1.37%.

Work on `CNc1ccc(CC2CCCN(C(=O)c3c(C)noc3C)C2)nn1` (stereo not given) yielded a cytotoxicity at 70.5 h of -13.8%.

With `CN(Cc1nnc(C2CC2)n1C)C1CCN(CCc2ccncc2)C1` (stereo not given) the cytotoxicity at 70.5 h was -6%.

Work on `Cc1cc(CN2CCN(c3ccc4nncn4n3)C(C)C2)on1` (stereo not given) yielded a cytotoxicity at 70.5 h of 20%.

For `O=C(CCO)N1CC2(CCN(c3ccccc3)C2)C1`, the cytotoxicity at 70.5 h was -1.72%.

`O=c1[nH]c(N2CCOCC2)nc2c1CN(Cc1cccnc1)CC2` showed a cytotoxicity at 70.5 h of 0.495%.

For `Cc1ccc(C(=O)N2C[C@@H](OCc3cccnc3)[C@H]3OCCC[C@@H]32)o1`, the cytotoxicity at 70.5 h was 10.6%.

Work on `O=C(Nc1cn[nH]c1)N(CCO)C1CCc2ccccc21` (stereo not given) yielded a cytotoxicity at 70.5 h of -13.9%.

With `CCNc1ncc(C(=O)NCCCc2ccncc2)cn1` the cytotoxicity at 70.5 h was -3.04%.

With `Cn1ccnc1-c1ccc(NCC2COc3ccccc3O2)nn1` (stereo not given) the cytotoxicity at 70.5 h was 1.13%.

In the case of `CN(C)CCN1CCO[C@H]2CN(Cc3cnn(C)c3)C[C@H]21`, the cytotoxicity at 70.5 h is reported as -7.82%.

`CC(NC(=O)NCCNc1ccccn1)c1cccs1` (stereo not given) gave a cytotoxicity at 70.5 h of -1.83%.

`c1cnn(CCNCCCOc2ccc3c(c2)OCO3)c1` gave a cytotoxicity at 70.5 h of 0.993%.

With `Cc1noc(C)c1C(C)C(=O)N1CCCN(C)c2ccc(Cl)cc21` (stereo not given) the cytotoxicity at 70.5 h was -6.12%.

For `CCN1CCN(CC(=O)N2CCOC(Cc3ccc(OC)cc3)C2)CC1` (stereo not given), the cytotoxicity at 70.5 h was -16%.

Work on `O=C(NCC(O)c1ccccc1)Nc1cccs1` (stereo not given) yielded a cytotoxicity at 70.5 h of 18.8%.

Molecule `CN(C(=O)Cc1ccccc1Cl)C1CCN(c2ccccn2)CC1` has a cytotoxicity at 70.5 h of 2.75%.

Work on `c1cnc(NCc2nnn3c2CN(Cc2ccsc2)CCC3)nc1` yielded a cytotoxicity at 70.5 h of -118%.

Molecule `Cc1cc(C(=O)NCc2c(C)nn(C)c2C)nc(N2CCCC2)n1` has a cytotoxicity at 70.5 h of -3.65%.

With `Cn1cc(N2CCCC(Nc3ccc4c(c3)NC(=O)CC4)C2=O)cn1` (stereo not given) the cytotoxicity at 70.5 h was -1.14%.

With `COc1ccc(C)cc1CN(C)Cc1nc2c(cnn2C)c(=O)[nH]1` the cytotoxicity at 70.5 h was -7.21%.

In the case of `CCN(C)C(=O)c1cc(-c2ccn(C(C)C)n2)n2ccccc12`, the cytotoxicity at 70.5 h is reported as -3.51%.

Work on `Cn1nc2c(cc1=O)CN(CC(=O)Nc1ccc(Cl)cn1)CC2` yielded a cytotoxicity at 70.5 h of -3.49%.

In the case of `CCn1cc(CN2CCCCC2CCn2ccnc2C)cc1C#N` (stereo not given), the cytotoxicity at 70.5 h is reported as -6.87%.

In the case of `COC(=O)N1CCCC(C(=O)NCc2cc3cccc(OC)c3o2)C1` (stereo not given), the cytotoxicity at 70.5 h is reported as -6.62%.

For `CCc1noc(C(C)N2CCN(CC)CC2)n1` (stereo not given), the cytotoxicity at 70.5 h was -8.24%.

`O=S(=O)(NCCCN1CC=CC1)c1cncc(Cl)c1` gave a cytotoxicity at 70.5 h of 29.6%.

Work on `O=S(=O)(C1CC1)N1CCC2(CC1)COC(COc1ccccn1)C2` (stereo not given) yielded a cytotoxicity at 70.5 h of -5.06%.

`Cc1nc(CN(C)C(=O)Nc2cccc(COC(C)C)c2)no1` gave a cytotoxicity at 70.5 h of -1.56%.

`O=C(CN1CCOC(Cn2cccn2)C1)NCc1ccco1` (stereo not given) gave a cytotoxicity at 70.5 h of -2.4%.

In the case of `Cc1noc([C@@H]2CCO[C@@H]3CCN(C(=O)Cc4ccsc4)C[C@@H]32)n1`, the cytotoxicity at 70.5 h is reported as 11.3%.

Molecule `CCOc1ccnc(N2CCCN(c3nc(C4CC4)ns3)CC2)n1` has a cytotoxicity at 70.5 h of 4.37%.

In the case of `CN(Cc1ccco1)[C@@H]1CN(Cc2cccs2)C[C@@H]2CCCO[C@@H]21`, the cytotoxicity at 70.5 h is reported as -6.25%.

Work on `Cc1ccc(-n2nnc(C(=O)NCC3(CO)CC3)c2C2CC2)cc1` yielded a cytotoxicity at 70.5 h of -4.67%.

`CN1C[C@H]2CNC[C@@]2(C(=O)N2CCN(c3ncccc3C#N)CC2)C1` gave a cytotoxicity at 70.5 h of -6.13%.

For `CO[C@H]1CN(Cc2cccc(C#N)c2)[C@@H]2COC[C@H]12`, the cytotoxicity at 70.5 h was -0.497%.
